Results on 3 molecules are retold here after patent publication US20170050957A1, “4-AMINO-6-(HETEROCYCLIC)PICOLINATES AND 6-AMINO-2-(HETEROCYCLIC)PYRIMIDINE-4-CARBOXYLATES AND THEIR USE AS HERBICIDES” (Dow AgroSciences LLC, priority 2013, published 2017).

Structures are written as SMILES. Where two headings read alike, the source gives them in different places.

Data set [1] relates to Key Grass and Sedge Weeds as well as Grass Crops. The experiment in a line: Post-emergent Test II herbicidal activity (Table 16). The class given is in vivo. The following applies: post-emergence, 336 h; for pest or weed control at 35 g/ha: 35 g ai/ha; for pest or weed control at 70 g/ha: 70 g ai/ha; for pest or weed control at 140 g/ha: 140 g ai/ha. How it is done: Post-emergent Test II: Seeds or nutlets of the desired test plant species were planted in Sun Gro Metro-Mix® 360 planting mixture, which typically has a pH of 6.0 to 6.8 and an organic matter content of about 30 percent, in plastic pots with a surface area of 64 square centimeters. When required to ensure good germination and healthy plants, a fungicide treatment and/or other chemical or physical treatment was applied. The plants were grown for 7-21 d in a greenhouse with an approximate 15 h photoperiod which was maintained at about 23-29° C. during the day and 22-28° C. during the night. Nutrients and water were added on a regular basis and supplemental lighting was provided with overhead metal halide 1000-Watt lamps as necessary. The plants were employed for testing when they reached the first or second true leaf stage.
A weighed amount, determined by the highest rate to be tested, of each test compound was placed in a 25 mL glass vial and was dissolved in 4 mL of a 97:3 v/v mixture of acetone and DMSO to obtain concentrated stock solutions. […] The concentrated stock solutions obtained were diluted with 20 mL of an aqueous mixture containing acetone, water, isopropyl alcohol, DMSO, Atplus 411F crop oil concentrate, and Triton® X-155 surfactant in a 48.5:39:10:1.5:1.0:0.02 v/v ratio to obtain spray solutions containing the highest application rates. Additional application rates were obtained by serial dilution of 12 mL of the high rate solution into a solution containing 2 mL of 97:3 v/v mixture of acetone and DMSO and 10 mL of an aqueous mixture containing acetone, water, isopropyl alcohol, DMSO, Atplus 411F crop oil concentrate, and Triton X-155 surfactant in a 48.5:39:10:1.5:1.0:0.02 v/v ratio to obtain 1/2×, 1/4×, 1/8× and 1/16× rates of the high rate. Compound requirements are based upon a 12 mL application volume at a rate of 187 liters per hectare (L/ha). Formulated compounds were applied to the plant material with an overhead Mandel track sprayer equipped with 8002E nozzles calibrated to deliver 187 L/ha over an application area of 0.503 square meters at a spray height of 18 inches (43 cm) above the average plant canopy height. Control plants were sprayed in the same manner with the solvent blank.
The treated plants and control plants were placed in a greenhouse as described above and watered by subirrigation to prevent wash-off of the test compounds. After 14 d, the condition of the test plants as compared with that of the untreated plants was determined visually and scored on a scale of 0 to 100 percent where 0 corresponds to no injury and 100 corresponds to complete kill.

Setting [2] is: Cyperus esculentus, yellow nutsedge (Cyperus esculentus), 14 d, read-out: Visual Growth Reduction (%) 14 Days After Application, CYPES.
Where [3] appears, read: Echinochloa crus-galli, barnyardgrass (Echinochloa crus-galli), 14 d, read-out: Visual Growth Reduction (%) 14 Days After Application, ECHCG.
Where [4] appears, read: Oryza sativa, rice (Oryza sativa), 14 d, read-out: Visual Growth Reduction (%) 14 Days After Application, ORYSA.
The mark [5] stands for this setting: Setaria faberi, giant foxtail (Setaria faberi), 14 d, read-out: Visual Growth Reduction (%) 14 Days After Application, SETFA.
Setting [6] is: Triticum aestivum, wheat, spring (Triticum aestivum), 14 d, read-out: Visual Growth Reduction (%) 14 Days After Application, TRZAS.
[7] abbreviates: Zea mays, maize, corn (Zea mays), 14 d, read-out: Visual Growth Reduction (%) 14 Days After Application, ZEAMX.

One may read the melting point as the temperature, or range, at which the solid turns liquid. For `COC(=O)c1nc(-c2ccc3ccn([Si](C(C)C)(C(C)C)C(C)C)c3c2F)c(F)c(N)c1Cl` [Compound 1.12, methyl 4-amino-3-chloro-5-fluoro-6-(7-fluoro-1-(triisopropylsilyl)-1H-indol-6-yl)picolinate], the melting point was 181 to 182 °C. Besides, in data set [1] (setting [2]), the pest or weed control at 35 g/ha was 0 to 29%, the pest or weed control at 70 g/ha was in the range of 0 to 29% and the pest or weed control at 140 g/ha lay in the range of 0 to 29%. Further, in data set [1] (setting [3]), the pest or weed control at 35 g/ha was in the range of 0 to 29%, the pest or weed control at 70 g/ha is 0 to 29% and the pest or weed control at 140 g/ha lay in the range of 85 to 94%. Further, in data set [1] (setting [4]), the pest or weed control at 35 g/ha lay within 0 to 29%, the pest or weed control at 70 g/ha is 0 to 29% and the pest or weed control at 140 g/ha is 0 to 29%. Further, in data set [1] (setting [5]), the pest or weed control at 35 g/ha is 75 to 84%, the pest or weed control at 70 g/ha is 60 to 74% and the pest or weed control at 140 g/ha lay within 75 to 84%. Besides, in data set [1] (setting [6]), the pest or weed control at 35 g/ha fell in the range of 45 to 59%, the pest or weed control at 70 g/ha fell in the range of 0 to 29% and the pest or weed control at 140 g/ha was in the range of 0 to 29%. Also, in data set [1] (setting [7]), the pest or weed control at 35 g/ha lay within 0 to 29%, the pest or weed control at 70 g/ha lay within 0 to 29% and the pest or weed control at 140 g/ha lay within 0 to 29%.

In the case of `Nc1c(F)c(-c2ccc3ccoc3c2)nc(C(=O)O)c1Cl` [Compound 2.08], the melting point was 168 to 170 °C. In data set [1] (setting [2]), the pest or weed control at 35 g/ha was 0 to 29%, the pest or weed control at 70 g/ha was 0 to 29% and the pest or weed control at 140 g/ha lay within 0 to 29%. In addition, in data set [1] (setting [3]), the pest or weed control at 35 g/ha was in the range of 85 to 94%, the pest or weed control at 70 g/ha lay within 85 to 94% and the pest or weed control at 140 g/ha was in the range of 95 to 100%. In data set [1] (setting [4]), the pest or weed control at 35 g/ha was 0 to 29%, the pest or weed control at 70 g/ha lay in the range of 30 to 44% and the pest or weed control at 140 g/ha lay in the range of 30 to 44%. In data set [1] (setting [5]), the pest or weed control at 35 g/ha fell in the range of 45 to 59%, the pest or weed control at 70 g/ha is 60 to 74% and the pest or weed control at 140 g/ha fell in the range of 85 to 94%. Moreover, in data set [1] (setting [6]), the pest or weed control at 35 g/ha fell in the range of 0 to 29%, the pest or weed control at 70 g/ha fell in the range of 0 to 29% and the pest or weed control at 140 g/ha is 0 to 29%. Moreover, in data set [1] (setting [7]), the pest or weed control at 35 g/ha lay within 45 to 59%, the pest or weed control at 70 g/ha was in the range of 60 to 74% and the pest or weed control at 140 g/ha lay in the range of 60 to 74%.

The molecule `COC(=O)c1nc(-c2ccc3[nH]nnc3c2)cc(N)c1Cl` [Compound 9.01] gave a melting point of 129 to 133 °C. The pest or weed control at 140 g/ha in data set [1] (Cyperus esculentus, yellow nutsedge (Cyperus esculentus), 14 days after application, read-out: Visual Growth Reduction (%) 14 Days After Application CYPES) lay within 95 to 100%. In data set [1] (Echinochloa crus-galli, barnyardgrass (Echinochloa crus-galli), 14 days after application, read-out: Visual Growth Reduction (%) 14 Days After Application ECHCG), the pest or weed control at 140 g/ha fell in the range of 95 to 100%. In addition, in data set [1] (Oryza sativa, rice (Oryza sativa), 14 days after application, read-out: Visual Growth Reduction (%) 14 Days After Application ORYSA), the pest or weed control at 140 g/ha was 0 to 29%. Further, in data set [1] (Setaria faberi, giant foxtail (Setaria faberi), 14 days after application, read-out: Visual Growth Reduction (%) 14 Days After Application SETFA), the pest or weed control at 140 g/ha is 0 to 29%. Moreover, in data set [1] (Triticum aestivum, wheat, spring (Triticum aestivum), 14 days after application, read-out: Visual Growth Reduction (%) 14 Days After Application TRZAS), the pest or weed control at 140 g/ha was in the range of 0 to 29%. Moreover, in data set [1] (Zea mays, maize, corn (Zea mays), 14 days after application, read-out: Visual Growth Reduction (%) 14 Days After Application ZEAMX), the pest or weed control at 140 g/ha was 0 to 29%.
